Assay results published in PMC7541553 (Molecular cancer therapeutics, 2020).

Set-up: species or system BALB/C mice
Conditions: mouse, in vivo, iv

t1/2 in the circulation: 33.4 ± 0.9 min
Substance: Arg-Gly-Asp [RGD]
